Test results taken from BigSolDB 2.1.

COc1cc([N+](=O)[O-])c(OC)cc1Cl
Conditions	solubility (mole fraction)
in ethanol, 276.95 K	0.00042
in ethanol, 281.05 K	0.000522
in ethanol, 285.25 K	0.000644
in ethanol, 288.25 K	0.000757
in ethanol, 291.45 K	0.000892
in ethanol, 295.75 K	0.00109
in ethanol, 300.15 K	0.00135
in ethanol, 305.55 K	0.00172
in ethanol, 310.45 K	0.00219
in ethanol, 314.85 K	0.00274
in ethanol, 319.65 K	0.0034
in ethanol, 323.65 K	0.00409
in ethanol, 327.25 K	0.0048
in ethanol, 330.25 K	0.00558
in ethanol, 333.35 K	0.00649
in ethanol, 336.65 K	0.00764
in ethanol, 340.45 K	0.00921
in m-xylene, 277.05 K	0.00728
in m-xylene, 279.95 K	0.00788
in m-xylene, 283.15 K	0.00872
in m-xylene, 286.15 K	0.00994
in m-xylene, 290.05 K	0.0118
in m-xylene, 295.35 K	0.0146
in m-xylene, 300.75 K	0.0178
in m-xylene, 305.05 K	0.0209
in m-xylene, 308.85 K	0.024
in m-xylene, 312.15 K	0.0272
in m-xylene, 315.45 K	0.0305
in m-xylene, 318.55 K	0.0341
in m-xylene, 321.75 K	0.0382
in m-xylene, 325.05 K	0.0432
in m-xylene, 328.45 K	0.049
in m-xylene, 332.05 K	0.0561
in m-xylene, 335.35 K	0.0645
in m-xylene, 338.95 K	0.0747
in methanol, 279.35 K	0.000449
in methanol, 282.75 K	0.000517
in methanol, 285.55 K	0.000598
in methanol, 288.85 K	0.000716
in methanol, 293.45 K	0.000895
in methanol, 297.55 K	0.00109
in methanol, 301.75 K	0.00131
in methanol, 305.85 K	0.00156
in methanol, 309.55 K	0.00187
in methanol, 313.25 K	0.00223
in methanol, 316.85 K	0.00266
in methanol, 320.75 K	0.00318
in methanol, 324.85 K	0.00383
in methanol, 329.05 K	0.00464
in o-xylene, 277.75 K	0.00864
in o-xylene, 280.45 K	0.00956
in o-xylene, 283.55 K	0.0107
in o-xylene, 287.05 K	0.0123
in o-xylene, 291.45 K	0.0145
in o-xylene, 296.25 K	0.0174
in o-xylene, 301.25 K	0.0209
in o-xylene, 305.65 K	0.0245
in o-xylene, 309.45 K	0.0283
in o-xylene, 313.25 K	0.0323
in o-xylene, 316.85 K	0.0367
in o-xylene, 320.55 K	0.0418
in o-xylene, 323.95 K	0.0476
in o-xylene, 327.55 K	0.0544
in o-xylene, 331.35 K	0.0624
in o-xylene, 335.25 K	0.0719
in o-xylene, 339.35 K	0.0831
in p-xylene, 289.55 K	0.0126
in p-xylene, 293.65 K	0.0145
in p-xylene, 297.55 K	0.0168
in p-xylene, 301.95 K	0.0198
in p-xylene, 306.15 K	0.023
in p-xylene, 310.25 K	0.0266
in p-xylene, 313.85 K	0.0304
in p-xylene, 317.55 K	0.0347
in p-xylene, 321.15 K	0.0396
in p-xylene, 324.65 K	0.0454
in p-xylene, 328.45 K	0.0522
in p-xylene, 332.35 K	0.0604
in p-xylene, 336.65 K	0.07
in toluene, 277.45 K	0.00969
in toluene, 280.55 K	0.0107
in toluene, 283.85 K	0.0122
in toluene, 287.85 K	0.0145
in toluene, 293.05 K	0.0178
in toluene, 297.95 K	0.0211
in toluene, 301.85 K	0.0241
in toluene, 305.35 K	0.0273
in toluene, 308.75 K	0.0308
in toluene, 312.35 K	0.0347
in toluene, 315.85 K	0.0393
in toluene, 319.45 K	0.045
in toluene, 323.45 K	0.052
in toluene, 327.75 K	0.061
in toluene, 332.75 K	0.0726
in toluene, 337.35 K	0.0852

COc1cc(Cl)c(OC)cc1N
Conditions	solubility (mole fraction)
in ethanol, 279.35 K	0.00274
in ethanol, 282.65 K	0.00327
in ethanol, 286.45 K	0.00386
in ethanol, 289.55 K	0.00447
in ethanol, 292.15 K	0.00497
in ethanol, 295.55 K	0.00579
in ethanol, 299.45 K	0.00695
in ethanol, 303.05 K	0.00821
in ethanol, 305.85 K	0.00938
in ethanol, 310.25 K	0.0115
in ethanol, 313.95 K	0.0137
in ethanol, 317.65 K	0.0164
in ethanol, 321.55 K	0.0201
in ethanol, 325.05 K	0.024
in ethanol, 328.65 K	0.0289
in ethanol, 331.55 K	0.0344
in ethanol, 335.25 K	0.0416
in m-xylene, 277.35 K	0.00495
in m-xylene, 281.85 K	0.00615
in m-xylene, 286.05 K	0.00739
in m-xylene, 289.95 K	0.00877
in m-xylene, 292.85 K	0.0103
in m-xylene, 296.25 K	0.012
in m-xylene, 299.35 K	0.0139
in m-xylene, 302.35 K	0.016
in m-xylene, 305.55 K	0.0186
in m-xylene, 309.25 K	0.0219
in m-xylene, 312.75 K	0.0262
in m-xylene, 316.95 K	0.0318
in m-xylene, 321.25 K	0.0386
in m-xylene, 325.05 K	0.0466
in m-xylene, 328.65 K	0.0561
in m-xylene, 332.35 K	0.0669
in m-xylene, 335.65 K	0.0791
in methanol, 278.05 K	0.00282
in methanol, 282.45 K	0.00342
in methanol, 285.85 K	0.00399
in methanol, 289.45 K	0.00465
in methanol, 292.75 K	0.0054
in methanol, 296.65 K	0.00634
in methanol, 299.85 K	0.00734
in methanol, 303.35 K	0.00852
in methanol, 306.55 K	0.0099
in methanol, 309.95 K	0.0115
in methanol, 313.45 K	0.0134
in methanol, 316.45 K	0.0156
in methanol, 319.35 K	0.0181
in methanol, 322.45 K	0.0212
in methanol, 325.45 K	0.0247
in methanol, 328.85 K	0.0289
in o-xylene, 278.25 K	0.0058
in o-xylene, 281.85 K	0.00699
in o-xylene, 285.55 K	0.00831
in o-xylene, 289.15 K	0.00989
in o-xylene, 292.75 K	0.0117
in o-xylene, 296.05 K	0.0136
in o-xylene, 299.45 K	0.0158
in o-xylene, 303.25 K	0.0184
in o-xylene, 307.05 K	0.0214
in o-xylene, 310.35 K	0.0252
in o-xylene, 313.65 K	0.0298
in o-xylene, 317.55 K	0.0358
in o-xylene, 321.85 K	0.0443
in o-xylene, 326.25 K	0.0549
in o-xylene, 330.95 K	0.0677
in o-xylene, 335.05 K	0.0816
in p-xylene, 288.55 K	0.00855
in p-xylene, 291.65 K	0.00985
in p-xylene, 294.95 K	0.0115
in p-xylene, 298.45 K	0.0134
in p-xylene, 302.25 K	0.0158
in p-xylene, 306.05 K	0.0186
in p-xylene, 309.65 K	0.022
in p-xylene, 313.55 K	0.026
in p-xylene, 317.65 K	0.031
in p-xylene, 321.25 K	0.0371
in p-xylene, 325.25 K	0.0447
in p-xylene, 329.55 K	0.0539
in p-xylene, 334.25 K	0.0651
in toluene, 277.65 K	0.0065
in toluene, 281.95 K	0.00831
in toluene, 286.05 K	0.0101
in toluene, 290.05 K	0.0126
in toluene, 293.35 K	0.0146
in toluene, 296.45 K	0.0169
in toluene, 299.65 K	0.0194
in toluene, 302.75 K	0.0224
in toluene, 306.25 K	0.0263
in toluene, 309.95 K	0.0312
in toluene, 313.75 K	0.0373
in toluene, 317.65 K	0.0447
in toluene, 321.75 K	0.0536
in toluene, 325.45 K	0.0641
in toluene, 328.95 K	0.0761
in toluene, 332.25 K	0.0894
in toluene, 335.35 K	0.104
